Assay results published in the NIST ThermoML archive (doi:10.1016/j.jct.2009.03.009).

How the values were obtained:
[1] = refractive index (Na D-line) (dimensionless); xn = mol fraction of the nth substance listed; settings: 313.15 K, 101 kPa, Liquid, Standard Abbe refractometry
[2] = xn = mol fraction of the nth substance listed; settings: 313.15 K, 101 kPa, Liquid; for speed of sound: Sing-around technique in a fixed-path interferometer; for mass density: Vibrating tube method

Cc1ccccc1 [toluene] + CCCCCCC
Settings	mass density, [2] [kg/m3]	refractive index, [1]	speed of sound, [2] [m/s]
x2 = 0	848	1.48464	1240.7
x2 = 0.0496	835.7	1.47712	1225.2
x2 = 0.1037	822.8	1.46965	1211.4
x2 = 0.204	800.2	1.45586	1185.7
x2 = 0.406	759.4	1.43176	1144.8
x2 = 0.5045	741.5	1.42117	1127.8
x2 = 0.6016	724.9	1.41138	1113.1
x2 = 0.7011	709	1.40201	1099.4
x2 = 0.8029	693.7	1.39298	1087
x2 = 0.9019	679.7	1.38489	1075.9
x2 = 0.9517	673	1.38102	1071.2

Cc1ccccc1 [toluene] + CCCCCCCC
x2 = 0
Settings	mass density [kg/m3]	refractive index	speed of sound [m/s]
[1]	–	1.48509	–
[2]	848	–	1240.7

Cc1ccccc1 [toluene] + CCCCCCCCC
x2 = 0
Settings	mass density [kg/m3]	refractive index	speed of sound [m/s]
[1]	–	1.48464	–
[2]	848	–	1240.7
